Values after ≈ are worked out from the molar mass of the structure shown.
Columns and labels:
[1] = test system: Mycobacterium tuberculosis; experiment: Antimycobacterial activity against Mycobacterium tuberculosis H37Rv CNCTC My 331/88 after 14 days by micromethod; type: functional; details: H37Rv CNCTC My 331/88, 336 h
[2] = test system: Mycobacterium tuberculosis; experiment: Antimycobacterial activity against Mycobacterium tuberculosis H37Rv CNCTC My 331/88 after 21 days by micromethod; type: functional; details: H37Rv CNCTC My 331/88, 504 h
Mycobacterium avium [3] = experiment: Antimycobacterial activity against Mycobacterium avium CNCTC My 330/80 after 14 days by micromethod; type: functional; details: CNCTC My 330/80, 336 h
Mycobacterium avium [4] = experiment: Antimycobacterial activity against Mycobacterium avium CNCTC My 330/80 after 21 days by micromethod; type: functional; details: CNCTC My 330/80, 504 h
Mycobacterium kansasii [5] = experiment: Antimycobacterial activity against Mycobacterium kansasii CNCTC My 235/80 after 7 days by micromethod; type: functional; details: CNCTC My 235/80, 168 h
Mycobacterium kansasii [6] = experiment: Antimycobacterial activity against Mycobacterium kansasii CNCTC My 235/80 after 14 days by micromethod; type: functional; details: CNCTC My 235/80, 336 h
Mycobacterium kansasii [7] = experiment: Antimycobacterial activity against Mycobacterium kansasii CNCTC My 235/80 after 21 days by micromethod; type: functional; details: CNCTC My 235/80, 504 h
Mycobacterium kansasii [8] = experiment: Antimycobacterial activity against Mycobacterium kansasii isolate 6509/96 after 7 days by micromethod; type: functional; details: isolate 6509/96, 168 h
Mycobacterium kansasii [9] = experiment: Antimycobacterial activity against Mycobacterium kansasii isolate 6509/96 after 14 days by micromethod; type: functional; details: isolate 6509/96, 336 h
Mycobacterium kansasii [10] = experiment: Antimycobacterial activity against Mycobacterium kansasii isolate 6509/96 after 21 days by micromethod; type: functional; details: isolate 6509/96, 504 h
CHO-K1 = experiment: Cytotoxicity against CHOK1 cells after 24 hrs by MTT assay; type: cell-based; details: Cricetulus griseus, CHO-K1, 24 h
Staphylococcus aureus [11] = experiment: Antibacterial activity against Staphylococcus aureus ATCC 6538 after 24 hrs by broth microdilution method; type: functional; details: ATCC 6538, 24 h
Staphylococcus aureus [12] = experiment: Antibacterial activity against Staphylococcus aureus ATCC 6538 after 48 hrs by broth microdilution method; type: functional; details: ATCC 6538, 48 h
Staphylococcus aureus [13] = experiment: Antibacterial activity against methicillin-resistant Staphylococcus aureus HK5996/08 after 24 hrs by broth microdilution method; type: functional; details: HK5996/08, 24 h
Staphylococcus aureus [14] = experiment: Antibacterial activity against methicillin-resistant Staphylococcus aureus HK5996/08 after 48 hrs by broth microdilution method; type: functional; details: HK5996/08, 48 h
[15] = test system: Staphylococcus epidermidis; experiment: Antibacterial activity against Staphylococcus epidermidis HK6966/08 after 24 hrs by broth microdilution method; type: functional; details: HK6966/08, 24 h
[16] = test system: Staphylococcus epidermidis; experiment: Antibacterial activity against Staphylococcus epidermidis HK6966/08 after 48 hrs by broth microdilution method; type: functional; details: HK6966/08, 48 h
Enterococcus sp. [17] = experiment: Antibacterial activity against Enterococcus sp. HK14365/08 after 24 hrs by broth microdilution method; type: functional; details: HK14365/08, 24 h
Enterococcus sp. [18] = experiment: Antibacterial activity against Enterococcus sp. HK14365/08 after 48 hrs by broth microdilution method; type: functional; details: HK14365/08, 48 h
Escherichia coli [19] = experiment: Antibacterial activity against Escherichia coli ATCC 8739 after 24 hrs by broth microdilution method; type: functional; details: ATCC 8739, 24 h
Escherichia coli [20] = experiment: Antibacterial activity against Escherichia coli ATCC 8739 after 48 hrs by broth microdilution method; type: functional; details: ATCC 8739, 48 h
Klebsiella pneumoniae [21] = experiment: Antibacterial activity against Klebsiella pneumoniae HK11750/08 after 24 hrs by broth microdilution method; type: functional; details: HK11750/08, 24 h
Klebsiella pneumoniae [22] = experiment: Antibacterial activity against Klebsiella pneumoniae HK11750/08 after 48 hrs by broth microdilution method; type: functional; details: HK11750/08, 48 h
Klebsiella pneumoniae [23] = experiment: Antibacterial activity against extended spectrum beta-lactamase producing Klebsiella pneumoniae HK14368/08 after 24 hrs by broth microdilution method; type: functional; details: HK14368/08, 24 h
Klebsiella pneumoniae [24] = experiment: Antibacterial activity against extended spectrum beta-lactamase producing Klebsiella pneumoniae HK14368/08 after 48 hrs by broth microdilution method; type: functional; details: HK14368/08, 48 h
Pseudomonas aeruginosa [25] = experiment: Antibacterial activity against Pseudomonas aeruginosa ATCC 9027 after 24 hrs by broth microdilution method; type: functional; details: ATCC 9027, 24 h
Pseudomonas aeruginosa [26] = experiment: Antibacterial activity against Pseudomonas aeruginosa ATCC 9027 after 48 hrs by broth microdilution method; type: functional; details: ATCC 9027, 48 h
Candida albicans [27] = experiment: Antifungal activity against Candida albicans ATCC 44859 after 24 hrs by broth microdilution method; type: functional; details: ATCC 44859, 24 h
Candida albicans [28] = experiment: Antifungal activity against Candida albicans ATCC 44859 after 48 hrs by broth microdilution method; type: functional; details: ATCC 44859, 48 h
Candida tropicalis [29] = experiment: Antifungal activity against Candida tropicalis 156 after 24 hrs by broth microdilution method; type: functional; details: Candida tropicalis, 156, 24 h
Candida tropicalis [30] = experiment: Antifungal activity against Candida tropicalis 156 after 48 hrs by broth microdilution method; type: functional; details: Candida tropicalis, 156, 48 h
Pichia kudriavzevii [31] = experiment: Antifungal activity against Candida krusei E28 after 24 hrs by broth microdilution method; type: functional; details: E28, 24 h
Pichia kudriavzevii [32] = experiment: Antifungal activity against Candida krusei E28 after 48 hrs by broth microdilution method; type: functional; details: E28, 48 h
Nakaseomyces glabratus [33] = experiment: Antifungal activity against Candida glabrata 20/I after 24 hrs by broth microdilution method; type: functional
Nakaseomyces glabratus [34] = experiment: Antifungal activity against Candida glabrata 20/I after 48 hrs by broth microdilution method; type: functional
Trichosporon asahii [35] = experiment: Antifungal activity against Trichosporon asahii 1188 after 24 hrs by broth microdilution method; type: functional; details: Trichosporon asahii, 1188, 24 h
Trichosporon asahii [36] = experiment: Antifungal activity against Trichosporon asahii 1188 after 48 hrs by broth microdilution method; type: functional; details: Trichosporon asahii, 1188, 48 h
Aspergillus fumigatus [37] = experiment: Antifungal activity against Aspergillus fumigatus 231 after 24 hrs by broth microdilution method; type: functional; details: Aspergillus fumigatus, 231, 24 h
Aspergillus fumigatus [38] = experiment: Antifungal activity against Aspergillus fumigatus 231 after 48 hrs by broth microdilution method; type: functional; details: Aspergillus fumigatus, 231, 48 h
Lichtheimia corymbifera [39] = experiment: Antifungal activity against Absidia corymbifera 272 after 24 hrs by broth microdilution method; type: functional; details: Lichtheimia corymbifera, 272, 24 h
Lichtheimia corymbifera [40] = experiment: Antifungal activity against Absidia corymbifera 272 after 48 hrs by broth microdilution method; type: functional; details: Lichtheimia corymbifera, 272, 48 h
[41] = test system: Trichophyton mentagrophytes; experiment: Antifungal activity against Trichophyton mentagrophytes 445 after 72 hrs by broth microdilution method; type: functional; details: Trichophyton mentagrophytes, 445, 72 h
[42] = test system: Trichophyton mentagrophytes; experiment: Antifungal activity against Trichophyton mentagrophytes 445 after 120 hrs by broth microdilution method; type: functional; details: Trichophyton mentagrophytes, 445, 120 h

CCCCCCCCCCCCn1nnc(-c2cc([N+](=O)[O-])cc([N+](=O)[O-])c2)n1
MIC99 [1]: 1 µM (≈ 0.404 µg/mL)
MIC99 [2]: 2 µM (≈ 0.809 µg/mL)
MIC99 (Mycobacterium avium [3]): 8 µM (≈ 3.24 µg/mL)
MIC99 (Mycobacterium avium [4]): 16 µM (≈ 6.47 µg/mL)
MIC99 (Mycobacterium kansasii [5]): 4 µM (≈ 1.62 µg/mL)
MIC99 (Mycobacterium kansasii [6]): 8 µM (≈ 3.24 µg/mL)
MIC99 (Mycobacterium kansasii [7]): 8 µM (≈ 3.24 µg/mL)
MIC99 (Mycobacterium kansasii [8]): 2 µM (≈ 0.809 µg/mL)
MIC99 (Mycobacterium kansasii [9]): 4 µM (≈ 1.62 µg/mL)
MIC99 (Mycobacterium kansasii [10]): 4 µM (≈ 1.62 µg/mL)
IC50 (CHO-K1): > 200 µM
MIC (Staphylococcus aureus [11]): > 250 µM
MIC (Staphylococcus aureus [12]): > 250 µM
MIC (Staphylococcus aureus [13]): > 250 µM
MIC (Staphylococcus aureus [14]): > 250 µM
MIC [15]: > 250 µM
MIC [16]: > 250 µM
MIC (Enterococcus sp. [17]): > 250 µM
MIC (Enterococcus sp. [18]): > 250 µM
MIC (Escherichia coli [19]): > 250 µM
MIC (Escherichia coli [20]): > 250 µM
MIC (Klebsiella pneumoniae [21]): > 250 µM
MIC (Klebsiella pneumoniae [22]): > 250 µM
MIC (Klebsiella pneumoniae [23]): > 250 µM
MIC (Klebsiella pneumoniae [24]): > 250 µM
MIC (Pseudomonas aeruginosa [25]): > 250 µM
MIC (Pseudomonas aeruginosa [26]): > 250 µM
MIC (Candida albicans [27]): > 250 µM
MIC (Candida albicans [28]): > 250 µM
MIC (Candida tropicalis [29]): > 250 µM
MIC (Candida tropicalis [30]): > 250 µM
MIC (Pichia kudriavzevii [31]): > 250 µM
MIC (Pichia kudriavzevii [32]): > 250 µM
MIC (Nakaseomyces glabratus [33]): > 250 µM
MIC (Nakaseomyces glabratus [34]): > 250 µM
MIC (Trichosporon asahii [35]): > 250 µM
MIC (Trichosporon asahii [36]): > 250 µM
MIC (Aspergillus fumigatus [37]): > 250 µM
MIC (Aspergillus fumigatus [38]): > 250 µM
MIC (Lichtheimia corymbifera [39]): > 250 µM
MIC (Lichtheimia corymbifera [40]): > 250 µM
MIC [41]: > 250 µM
MIC [42]: > 250 µM

Reference: ChEMBL document CHEMBL4011590, “Structure-activity relationship studies on 3,5-dinitrophenyl tetrazoles as antitubercular agents” (Eur J Med Chem, 2017)
